# Measured values from patent US6482609B1, “Isolated human EDG-4 receptor and polynucletide encoding said receptor” (priority 1997, dated 2002).
# Experiments:
# rat edg4 [1] = target: T1, rat edg4 (Rattus norvegicus, UniProt P47752); assay: SRE luciferase reporter in 293-EBNA cells, rat EDG-4; type: cell-based; design: expressed in transfected cells; host or cells: 293-EBNA; conditions: 3 μM SPC, 6 hr
# Experimental: Transfection was accomplished using the Lipofectamine Plus kit (Life Technologies, Cat. 10964-013), using the manufacturer's recommended conditions. Optimal SRE induction was seen when cells were seeded so as to become 100% confluent at the time of treatment, 72-96 hr after transfection.
# [2] = system: Human Umbilical Vein Endothelial Cells (HUVEC); assay: IL-8 ELISA on primary cultured HUVEC treated with lysolipids; type: cell-based; conditions: 6 hr treatment
# Experimental: Plating, Pretreatment and Treatment of HUVEC
# Procedures were followed as detailed above in “Procedure #1 for HeLa Cells” with the following exceptions:
# Cells were plated at 20,000 cells/well into 24-well plates. The next day, cells were serum-starved overnight in EBM medium (Clonetics) with 0.5% FBS, and then treated in EBM without FBS for 6 hr with the following lysolipids:
# Supematants were collected and IL-8 levels were deternined using ELISA as described previously.
# EDG-1 [3] = target: T2, EDG-1 (Homo sapiens, UniProt P21453); assay: NF-κB luciferase reporter in 293-EBNA cells, EDG-1; type: cell-based; design: expressed in transfected cells; host or cells: 293-EBNA; conditions: 3 μM, 6 hours
# Experimental: 3) 30 μl Lipofectamine Reagent (Lipofectamine Plus Kit) was diluted in 750 μl DMEM/F12. The diluted Lipofectamine was then combined with the DNA/Plus mixture and incubated at room temperature for 15 min. […] 2) Transfected cells were harvested by trypsinization and 50,000 cells per well were plated in 96-well Blackview plates coated with poly D-lysine (Becton Dickinson Labware, Cat. 40640). No cells were plated in the outside wells of the 96-well plate. […] 1) Media was removed and cells treated with compounds diluted in DMEM/F12 media. […] 2) The cells were treated for 6 hours. 3) Luciferase assay was performed.
# HL-60 cells = assay: Cytotoxicity (cell viability) in HL-60 cells; type: cell-based, human
# Experimental: For this purpose, an experiment was conducted to measure cytotoxicity in parallel with IL-8 response. […] Therefore, IL-8 production had to be robust to be observed at 6 hr, while even slight or delayed toxicity would be seen as a loss of viability at 24 hr.
# EDG-7 [4] = assay: Calcium microfluorimetry in 293-EBNA cells, EDG-7; type: cell-based; conditions: 2 and 10 μM, preliminary data
# Experimental: (§1) Transfections were carried out with EDG receptors in 293-EBNA cells as described above, except that no reporter gene vector was included in the DNA mix. Two days after transfection, cells were harvested by trypsinization and plated at a density of 200,000 cells onto poly-D-lysine-coated coverslips in 100 μl of medium containing 0.5% FBS. After briefly allowing cell attachment to take place, 2 ml of medium without FBS was added and the cells were incubated overnight. The next day, cells were loaded with 5 μM fura-2 AM ester (Molecular Probes) for 60 min at RT, then washed and used for calcium microfluorimetry. […] Treatments were applied using a gravity-fed perfusion apparatus. Fluorescence emission was continuously monitored and recorded with PTI 2.060a software and analyzed with Sigma Plot software. Intracellular calcium concentrations were calculated by interpolation on a ratiometric fluorescence curve generated from fura-2 fluorescence in a calcium dilution series.
# EDG-7 [5] = assay: NF-κB reporter, EDG-7; type: cell-based
# EDG-1 [6] = target: T2, EDG-1; assay: Calcium microfluorimetry (fura-2) in 293-EBNA cells, EDG-1; type: cell-based; conditions: 2 and 10 μM, preliminary data
# Experimental: as §1
# rat edg4 [7] = target: T1, rat edg4; assay: IL-8 ELISA on COS-1 cells transiently transfected with rat EDG-4; type: cell-based; design: expressed in transfected cells
# Experimental: A. DEAE/Dextran Cell Suspension Transient Transfection.
# Transfection was done as described in Anal Biochem 218:460 (1994).
# 1) 6 ml RSC was added to 4-50 ml tubes. The following amounts of DNA were added:
# 3) 1.5 ml COS-1 cell suspension (5.5×10^6 cells total) in RSC was added to each tube and incubated for 105 min in 37° C. incubator. Tubes were mixed every 20 min.
# 4) Following incubation, tubes were spun for 5 min, cell pellets were washed with DMEM/F12+10% FBS once and then resuspended in 10 ml media. Cells were plated in 24-well plates at 0.2×10^6 cells/well.
# 500 μl treatment volume was used. Supernatants were microfuged at 14,000 rpm for 10 min., transferred to new eppendorf tubes and stored at −20° C. for future IL-8 ELISA determination.
# The procedure as outlined in Procedure for HeLa Cells (D) was followed, using 50 μl of sample per ELISA determination in duplicate.
# EDG-1 [8] = target: T2, EDG-1; assay: SRE luciferase reporter (2XSREtk-p4Luc-zeo) in 293-EBNA cells, EDG-1; type: cell-based; design: expressed in transfected cells; host or cells: 293-EBNA; conditions: 3 μM, 6 hours
# HeLa cells = assay: Cytotoxicity (viable cell count) in HeLa cells; type: cell-based, human; conditions: S1P concentrations up to 10 μM
# Description: Follow Procedure #2 For HeLa Cells with the following exceptions: […]
# human EDG-3 = target: T3, human EDG-3 (Homo sapiens, UniProt Q99500); assay: Calcium microfluorimetry in 293-EBNA cells, EDG-3; type: cell-based; conditions: EDG-3 transfected cells; 2 μM S1P
# T3 construct: expressed in transfected cells; host or cells: 293-EBNA
# Experimental: as §1
# 293-EBNA cells = assay: IL-8 production in untransfected 293-EBNA cells; type: cell-based
# T1 sequence (P47752 whole entry): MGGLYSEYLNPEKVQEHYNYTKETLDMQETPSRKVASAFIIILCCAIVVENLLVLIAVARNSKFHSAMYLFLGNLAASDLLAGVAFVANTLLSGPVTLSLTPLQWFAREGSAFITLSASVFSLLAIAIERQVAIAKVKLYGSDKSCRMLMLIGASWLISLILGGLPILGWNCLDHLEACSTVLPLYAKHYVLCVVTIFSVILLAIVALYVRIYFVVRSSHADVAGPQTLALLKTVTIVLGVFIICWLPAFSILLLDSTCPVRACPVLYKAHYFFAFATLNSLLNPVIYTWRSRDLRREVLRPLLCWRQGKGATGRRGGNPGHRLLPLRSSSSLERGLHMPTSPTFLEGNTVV
# T2 sequence (P21453 whole entry): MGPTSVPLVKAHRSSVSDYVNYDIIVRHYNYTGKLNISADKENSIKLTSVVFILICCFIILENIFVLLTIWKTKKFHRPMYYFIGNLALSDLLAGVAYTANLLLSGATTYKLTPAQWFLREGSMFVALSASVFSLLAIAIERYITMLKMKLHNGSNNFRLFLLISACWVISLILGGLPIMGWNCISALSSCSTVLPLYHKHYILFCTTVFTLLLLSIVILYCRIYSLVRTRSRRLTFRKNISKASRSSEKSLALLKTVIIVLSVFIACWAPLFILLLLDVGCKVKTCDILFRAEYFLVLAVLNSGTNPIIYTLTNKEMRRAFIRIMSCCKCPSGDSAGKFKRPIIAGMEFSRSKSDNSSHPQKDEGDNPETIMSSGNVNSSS
# T3 sequence (Q99500 whole entry): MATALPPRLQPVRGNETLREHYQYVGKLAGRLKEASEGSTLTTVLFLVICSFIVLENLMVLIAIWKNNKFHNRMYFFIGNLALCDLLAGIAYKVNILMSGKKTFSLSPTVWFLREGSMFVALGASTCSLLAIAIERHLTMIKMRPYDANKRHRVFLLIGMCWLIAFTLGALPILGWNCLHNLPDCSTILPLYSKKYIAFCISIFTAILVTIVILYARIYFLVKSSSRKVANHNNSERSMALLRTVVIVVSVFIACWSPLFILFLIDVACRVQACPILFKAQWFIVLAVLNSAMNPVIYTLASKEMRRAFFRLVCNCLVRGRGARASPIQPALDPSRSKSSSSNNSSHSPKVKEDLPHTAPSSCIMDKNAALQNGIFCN
SMILES,Induction of luciferase activity (SRE reporter) (rat edg4 [1]),IL-8 response (qualitative) [2],Luciferase activity (NF-κB reporter) (EDG-1 [3]),Concentration at which toxicity begins (HL-60 cells),Qualitative calcium response (EDG-7 [4]),NF-κB reporter signaling (EDG-7 [5]),Qualitative calcium response (EDG-1 [6]),"Increase in IL-8 release compared to untreated cells (rat edg4 [7]; COS-1 cells transfected with EDG-4 expression plasmid, 5 μm, overnight)","PTX sensitivity of IL-8 response (rat edg4 [7]; EDG-4 transfected COS-1 cells, PTX 50 ng/ml)",Increase in luciferase activity (SRE reporter) (EDG-1 [8]),Cell viability 24 hr after treatment (HeLa cells),Increase in intracellular calcium (human EDG-3),IL-8 production (293-EBNA cells)
"CCCCCCCCCCCCC/C=C/[C@@H](O)[C@@H](N)COP(=O)([O-])OCC[N+](C)(C)C [SPC, sphingosylphosphorylcholine]",35.6 fold,Marginal increases,,,,,,,,,,,
"CCCCCCCCCCCCC/C=C/[C@@H](O)[C@@H](N)COP(=O)(O)O [S1P, sphingosine-1-phosphate]",,,no increase in luciferase activity,10 µM,None within 20 min,fail to signal through NF-κB reporters,None within 20 min,2 fold,pertussis toxin sensitive,8 fold,No loss of HeLa viability,300 nM,no IL-8 production
